Measurements published in PMC7488503 (Acta Pharmaceutica Sinica. B, 2020).

Test system: patient-derived tumor (LI-03-0020) xenograft
Assay: Liver cancer patient-derived tumor xenograft
Assay type: in vivo, Balb/c nude mice
Conditions: liver cancer PDX model, 60 mg/kg oral QD

CNC(=O)c1cc(Oc2ccc(NC(=O)Nc3ccc(Cl)c(C(F)(F)F)c3)cc2)ccn1 [Sorafenib, reference compound]
T/C (Day 21): 31%
TGI (Day 21): 80%
Tumor volume at Day 21 (mean ± SEM): 304 ± 73 mm^3
